Patent US12590099B2, “Inhibitors of histone deacetylase useful for the treatment or prevention of HIV infection” (Merck Sharp & Dohme LLC, priority 2018, dated 2026)
Where two headings read alike, the source gives them in different places.

Assays:
[1] = tested on: KARN cells (Jurkat 2C4); assay: cells; assay type: cell-based; conditions: Homo sapiens, Jurkat, luciferase induction, 100% = 2 μM SAHA
How it was run: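 Luminescence (Steady-Glo, 10 min, room temperature) measured next day in KARN Jurkat 2C4 cells given compounds at up to 40 μM final with 0.4% DMSO. Percent activation normalised to DMSO (0%) and 2 μM SAHA (100%), fitted by 4-parameter curve.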

[2] = molecular target: T1, Recombinant human HDAC8 (Homo sapiens, UniProt Q9BY41); assay: Human HDAC enzyme inhibitor Fluor-de-Lys assay, HDAC8; assay type: biochemical; conditions: recombinant human HDAC8, Fluor-de-Lys assay
T1 construct: purchased Enzo Life Sciences BML-SE145-0100
T1 sequence (Q9BY41 1-377): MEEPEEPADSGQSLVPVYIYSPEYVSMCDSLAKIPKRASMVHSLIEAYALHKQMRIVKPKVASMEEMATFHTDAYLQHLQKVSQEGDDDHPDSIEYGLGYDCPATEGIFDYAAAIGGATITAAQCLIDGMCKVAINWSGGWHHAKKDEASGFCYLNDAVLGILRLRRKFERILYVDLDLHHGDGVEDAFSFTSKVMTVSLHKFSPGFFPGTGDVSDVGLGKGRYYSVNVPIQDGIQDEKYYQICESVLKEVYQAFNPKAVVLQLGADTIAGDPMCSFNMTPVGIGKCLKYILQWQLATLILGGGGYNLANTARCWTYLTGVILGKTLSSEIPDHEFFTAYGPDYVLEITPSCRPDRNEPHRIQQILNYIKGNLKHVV

[3] = read-out: Karn EC50 (nM) 0.1% NHS, 0.1% normal human serum
[4] = read-out: Karn EC50 (nM) 5% NHS, 5% normal human serum

| Compound | EC50 [1, 3] [nM] | EC50 [1, 4] [nM] | IC50 [2] [µM] |
| --- | --- | --- | --- |
| CCC(=O)CCCCC[C@H](NCC1CC1)c1ncc(-c2cc3ccc(C)nc3cc2OC)[nH]1 [Compound 398, (S)-9-((cyclopropylmethyl)amino)-9-(5-(7-methoxy-2-methylquinolin-6-yl)-1H-imidazol-2-yl)nonan-3-one] | 5500 | 10200 | > 0.9 |
| CCC(=O)CCCCC[C@H](NC(=O)CCN1C(=O)C(CC)=NC12CCOCC2)c1ncc(-c2ccccc2)[nH]1 [Compound 384] | 2220 | 2410 | 8.93 |
| CCC(=O)CCCCC[C@H](NC(=O)[C@H]1CC12CCN(CC1CC1)CC2)c1ncc(-c2cc3ccc(C)nc3cc2OC)o1 [Compound 422] | 15 | 10 | > 0.9 |
| CCC(=O)CCCCC[C@H](NC(=O)[C@H]1CC[C@]2(CC1)OC(=O)c1ncccc12)c1nnc(-c2cc3ccccc3nc2OC)o1 [Compound 367] | 1330 | 4490 | 21.4 |
| CCC(=O)CCCCC[C@H](NC(=O)C1=NOC2(CCN(C)CC2)C1)c1ncc(-c2ccc(-c3ccncc3)cc2OC)o1 [Compound 395] | 618 | 725 | > 0.9 |
